The structures appear in SMILES notation.

In data set [1] the target is MDR1 (P-glycoprotein, ABCB1) (Homo sapiens, UniProt P08183). In words: Inhibition of MDR1 in human Caco2 cells assessed as calcein accumulation after 30 mins by fluorescence assay. It counts as cell-based. Details: concentration or dose not given beside the values. Conditions: Caco-2 cells.
Data set [2] in a line: Binding affinity at VGCC.
The nature of data set [3]: Binding affinity at VGCC by patch clamp method.

Sequence of MDR1 (P-glycoprotein, ABCB1) (P08183 whole entry): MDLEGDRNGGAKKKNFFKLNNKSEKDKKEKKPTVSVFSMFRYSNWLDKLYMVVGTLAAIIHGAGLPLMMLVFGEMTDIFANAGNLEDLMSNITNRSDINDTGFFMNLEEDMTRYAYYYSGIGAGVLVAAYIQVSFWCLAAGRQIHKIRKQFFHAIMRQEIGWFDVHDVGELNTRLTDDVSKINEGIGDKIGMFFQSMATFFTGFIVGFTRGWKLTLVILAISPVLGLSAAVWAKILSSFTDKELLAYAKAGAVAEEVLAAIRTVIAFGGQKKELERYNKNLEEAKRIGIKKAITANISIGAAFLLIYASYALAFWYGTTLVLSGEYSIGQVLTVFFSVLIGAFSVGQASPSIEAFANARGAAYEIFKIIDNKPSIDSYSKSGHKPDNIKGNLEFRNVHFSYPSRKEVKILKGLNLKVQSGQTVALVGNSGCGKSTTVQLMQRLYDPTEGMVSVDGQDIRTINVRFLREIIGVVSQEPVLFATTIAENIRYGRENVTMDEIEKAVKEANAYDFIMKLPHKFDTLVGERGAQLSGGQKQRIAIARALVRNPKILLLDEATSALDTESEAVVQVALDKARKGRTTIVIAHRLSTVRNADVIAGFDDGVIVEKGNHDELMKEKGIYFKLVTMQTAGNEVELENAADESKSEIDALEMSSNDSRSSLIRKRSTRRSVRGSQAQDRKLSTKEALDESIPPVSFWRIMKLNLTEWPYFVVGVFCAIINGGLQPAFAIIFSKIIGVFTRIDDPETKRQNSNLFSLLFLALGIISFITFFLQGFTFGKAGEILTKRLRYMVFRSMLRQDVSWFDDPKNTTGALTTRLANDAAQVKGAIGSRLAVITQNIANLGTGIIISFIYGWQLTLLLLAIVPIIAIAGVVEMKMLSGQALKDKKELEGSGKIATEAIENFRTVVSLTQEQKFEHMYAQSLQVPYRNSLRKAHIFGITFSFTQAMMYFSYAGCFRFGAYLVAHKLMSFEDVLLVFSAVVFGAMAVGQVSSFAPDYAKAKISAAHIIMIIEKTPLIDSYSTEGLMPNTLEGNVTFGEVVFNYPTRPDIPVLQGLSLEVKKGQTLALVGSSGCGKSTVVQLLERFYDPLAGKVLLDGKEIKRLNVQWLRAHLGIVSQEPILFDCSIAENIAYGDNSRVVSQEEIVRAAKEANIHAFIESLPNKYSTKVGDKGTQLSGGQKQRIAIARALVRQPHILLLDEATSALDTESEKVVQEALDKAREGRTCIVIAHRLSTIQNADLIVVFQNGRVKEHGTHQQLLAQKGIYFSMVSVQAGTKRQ

In the case of `CCOC(=O)C1=C(C)N=C(C)/C(=C(/O)OCC)C1c1c(-c2ccccc2)noc1C` (stereo unspecified), the inhibition at 0.5 h in data set [1] was 48.9%. Further, in data set [2], the inhibition constant Ki amounted to 0.0139 µM. With `CCOC(=O)C1=C(C)NC(C)=C(C(=O)OCC)C1c1c(C)noc1C(C)Cc1cccc2ccccc12` (stereo unspecified), the inhibition at 0.5 h in data set [1] is 38.3%.

For `CCOC(=O)C1=C(C)N=C(C)/C(=C(/O)OCC)C1c1c(C)noc1CCc1ccc(-c2ccccc2)cc1` (stereo unspecified), the inhibition at 0.5 h in data set [1] is 18.6%. The same molecule showed an inhibition constant Ki in data set [2] of 0.00869 µM. With `CCOC(=O)C1=C(C)N=C(C)/C(=C(/O)OCC)C1c1c(-c2ccccc2)noc1C(C)C` (stereo unspecified), the inhibition at 0.5 h in data set [1] was 38.4%. Still for that read-out and setting: the same measure for `CCOC(=O)C1=C(C)NC(C)=C(C(=O)OCC)C1c1c(C)noc1C(C)Cc1cccc(Br)c1` (racemic): 61.2%. As for `CCOC(=O)C1=C(C)N=C(C)/C(=C(/O)OCC)C1c1c(-c2ccccc2)noc1CCc1ccccc1` (stereo unspecified), in data set [1], the inhibition at 0.5 h is 27.6%. This molecule also registered an inhibitory constant (Ki) in data set [2] of 0.0553 µM.

Regarding `CCOC(=O)C1=C(C)N=C(C)/C(=C(/O)OCC)C1c1c(C)noc1CCc1cccc2ccccc12` (stereo unspecified), the Activity in data set [3] came to 0.47 µM. Also, the inhibition at 0.5 h in data set [1] is 19%. The same molecule had a Ki in data set [2] of 0.0041 µM. Turning to `CCOC(=O)C1=C(C)N=C(C)/C(=C(/O)OCC)C1c1c(-c2ccccc2Cl)noc1C` (stereo unspecified), in data set [3], the Activity came out at 9.68 µM. Besides, the inhibition at 0.5 h in data set [1] was 10.9%. Take `CCOC(=O)C1=C(C)N=C(C)/C(=C(/O)OCC)C1c1c(-c2ccc(Cl)cc2)noc1C` (stereo unspecified): the inhibition at 0.5 h in data set [1] is 11.7%. Molecule `CCOC(=O)C1=C(C)N=C(C)/C(=C(/O)OCC)C1c1c(-c2cc(Cl)ccc2OC)noc1C` (stereo unspecified) had an Activity in data set [3] of 6.86 µM. In addition, the inhibition at 0.5 h in data set [1] is 15%. In data set [3], `CCOC(=O)C1=C(C)N=C(C)/C(=C(/O)OCC)C1c1c(-c2ccccc2OC)noc1C` (stereo unspecified) returned an Activity of 17.1 µM. Further, the inhibition at 0.5 h in data set [1] is 32.8%. The corresponding values for `CCOC(=O)C1=C(C)N=C(C)/C(=C(/O)OCC)C1c1c(-c2cccc(Cl)c2)noc1C` (stereo unspecified) are 1.98 µM and 26.8%.

These data come from ChEMBL document CHEMBL2157958, “4-Isoxazolyl-1,4-dihydropyridines exhibit binding at the multidrug-resistance transporter” (Bioorg Med Chem, 2012).
